Laboratory results reported in patent US20250064789A1, “KETOAMIDE DERIVATIVES AND PHARMACEUTICAL USES THEREOF” (priority 2022, published 2025).

What was measured:
Assay type in all cases: cell-based
[1] = test system: SARS-CoV-2 (B.1.1.529) BA.1 mutant strains; test: Antiviral activity at the cellular level by RT-qPCR in Vero E6-TMPRSS2 cells
[2] = test system: SARS-CoV-2 Alpha (B.1.1.7) mutant strains; test: Antiviral activity by plaque method in Vero E6-TMPRSS2 cells: SARS-CoV-2 Alpha
[3] = test system: SARS-CoV-2 Beta (B.1.351) mutant strains; test: Antiviral activity by plaque method in Vero E6-TMPRSS2 cells: SARS-CoV-2 Beta

| Structure (SMILES) | inhibitory activity on replication of SARS-CoV-2 (B.1.1.529) in Vero E6-TMPRSS2 cells (in words) [1] | anti-viral activity, times higher than Nirmatrelvir (PF-07321332) [2] [times] | anti-viral activity, times higher than Nirmatrelvir (PF-07321332) [3] [times] |
| --- | --- | --- | --- |
| COC[C@@H](NC(=O)C1CCCC(F)(F)C1)C(=O)N[C@H](Cc1ccccc1)C(=O)C(=O)NCc1nccs1 (stereo partly drawn) [Compound 398, N—((R)-1-(((R)-3,4-dioxo-1-phenyl-4-((thiazole-2-ylmethyl)amino)butan-2-yl)amino)-3-methoxy-1-oxopropan-2-yl)-3,3-difluorocyclohexane-1-formamide] | better inhibitory activity | 40.95 | 10.16 |
| COC[C@@H](NC(=O)C1CCC(F)(F)CC1)C(=O)N[C@H](Cc1ccccc1)C(=O)C(=O)NCc1nccs1 [Compound 395] | better inhibitory activity | – | – |
